Among the test systems are ACHN renal; HS 578T breast; KM12 colon; MALME-3M melanoma; NCI-H460 lung; OVCAR-8 ovarian; SNB-75 CNS; IGROV1 ovarian; OVCAR-3 ovarian; RXF 393 renal.
Holding throughout (test): NCI tumour cell line growth inhibition, 48 h

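Assay format: 96-well plates, 48-hour exposure. GI50 = concentration required for 50% inhibition of growth. Definition used: TGI = concentration required for complete inhibition of growth.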

For the compound `COC(=O)NC/C=C\c1nc(CC/C=C\C(=O)OC2CC3CC(=O)O[C@@H](/C=C/CC(C)C)C[C@@H]4CCC(C)C(C[C@@H](OC)CC(C2)O3)O4)co1` (some centres not stated), the GI50 in the experiment with ACHN renal was under 0.01 µM; in the experiment with HS 578T breast it was 32.8 µM; with KM12 colon it was 2.67 µM; with MALME-3M melanoma, 25.5 µM; with NCI-H460 lung, under 0.01 µM; in the experiment with OVCAR-8 ovarian it was 53 µM. In the experiment with SNB-75 CNS, the GI50 is over 100 µM. Besides, the TGI in the experiment with ACHN renal is over 100 µM; with HS 578T breast, over 100 µM; in the experiment on KM12 colon, over 100 µM; in the experiment on MALME-3M melanoma, 93.4 µM; in the experiment with NCI-H460 lung it was over 100 µM; in the experiment with OVCAR-8 ovarian, over 100 µM. Besides, the TGI with SNB-75 CNS is over 100 µM.
As for `CCCS(=O)(=O)c1nc(NC2CC2)cc(-c2ccc3c(ccn3C3CC(C)(C)NC(C)(C)C3)c2)n1`, the GI50 is 1.77 µM with ACHN renal; 2.1 µM with HS 578T breast; 1.97 µM in the experiment on IGROV1 ovarian; 1.83 µM in the experiment with KM12 colon; 1.8 µM in the experiment on NCI-H460 lung; 1.84 µM in the experiment on OVCAR-3 ovarian. In addition, the GI50 is 1.64 µM in the experiment on RXF 393 renal and 1.45 µM in the experiment with SNB-75 CNS. Also, the TGI turned out to be 3.35 µM in the experiment with ACHN renal; 4.93 µM in the experiment with HS 578T breast; 3.81 µM in the experiment with IGROV1 ovarian; 3.67 µM in the experiment on KM12 colon; 3.55 µM with NCI-H460 lung; 3.42 µM in the experiment with OVCAR-3 ovarian. Besides, the results for the TGI in the experiment with RXF 393 renal and in the experiment on SNB-75 CNS were 3.44 µM and 2.86 µM, respectively.
Take `CCCCCC(C(O)C#N)C(O)(C(F)(F)F)C(F)(F)F` (configuration not stated): the TGI in the experiment on ACHN renal, in the experiment with HS 578T breast, with IGROV1 ovarian, with KM12 colon, in the experiment on MALME-3M melanoma and in the experiment with OVCAR-3 ovarian was over 10 µM throughout. For the same compound, the TGI with OVCAR-8 ovarian and with SNB-75 CNS was over 10 µM in each case.
For the compound `CNC(=O)c1cc(Oc2ccc(NC(=O)Nc3ccc(Cl)c(OC(F)(F)F)c3)c(F)c2)ccn1`, the GI50 in the experiment with ACHN renal is 1.33 µM; in the experiment with HS 578T breast, 3.81 µM; in the experiment on IGROV1 ovarian, 2.3 µM; in the experiment with KM12 colon it was 1.17 µM; in the experiment with NCI-H460 lung, 2.22 µM; with OVCAR-3 ovarian it was 1.78 µM. Moreover, the values for the GI50 in the experiment with RXF 393 renal and in the experiment with SNB-75 CNS were 3.58 µM and 5.35 µM, respectively. Further, the TGI is over 33.2 µM with ACHN renal; over 33.2 µM with HS 578T breast; 16.6 µM in the experiment with IGROV1 ovarian; 9.09 µM with KM12 colon; 17.6 µM in the experiment with NCI-H460 lung; 11 µM with OVCAR-3 ovarian. Also, the TGI with RXF 393 renal turned out to be 18.9 µM; in the experiment on SNB-75 CNS it was 13.5 µM.
Consider `C=CCOc1c(Br)cc(Br)cc1Br`, for which the GI50 was 16.5 µM in the experiment with ACHN renal; 17.8 µM with HS 578T breast; 5.26 µM in the experiment with IGROV1 ovarian; 14.1 µM with KM12 colon; 8.21 µM in the experiment on NCI-H460 lung; 3.12 µM in the experiment on OVCAR-3 ovarian. The GI50 in the experiment with OVCAR-8 ovarian was 28.2 µM; with RXF 393 renal it was 19.3 µM; in the experiment with SNB-75 CNS, 20.2 µM. Moreover, the TGI in the experiment on ACHN renal was over 100 µM; in the experiment with HS 578T breast, over 100 µM; in the experiment with IGROV1 ovarian it was 67.1 µM; in the experiment on KM12 colon, 45.7 µM; with NCI-H460 lung, over 100 µM; with OVCAR-3 ovarian it was 17.2 µM. Also, the TGI in the experiment with OVCAR-8 ovarian, with RXF 393 renal and with SNB-75 CNS was over 100 µM in each case.
As for `Cc1ccc2/c(=C/c3ccc(N(C)C)cc3)c3cc(-c4ccccc4)[n+](C)n3c2c1`, the GI50 in the experiment with ACHN renal is 0.175 µM; in the experiment with HS 578T breast it was 0.035 µM; with IGROV1 ovarian it was 0.501 µM; in the experiment with KM12 colon, 0.0209 µM; in the experiment with MALME-3M melanoma, 0.0285 µM; in the experiment on NCI-H460 lung, 0.025 µM. The GI50 with OVCAR-3 ovarian is 1.1 µM; with SNB-75 CNS, 0.144 µM. The TGI is 2.89 µM in the experiment on HS 578T breast; 0.12 µM with KM12 colon; 1.17 µM in the experiment with MALME-3M melanoma; 1.38 µM with NCI-H460 lung; 47.5 µM in the experiment with OVCAR-3 ovarian; 2.02 µM in the experiment on SNB-75 CNS.
With `COc1cc(/C=C2\CC3C4CC=C5CC(N6CCCC6)CC[C@]5(C)C4CC[C@]3(C)C2OC(C)=O)ccc1OCCN1CCCC1` (some centres not stated), the GI50 with ACHN renal was 1.73 µM; in the experiment with HS 578T breast, 2.38 µM; in the experiment with IGROV1 ovarian it was 1.8 µM; in the experiment with KM12 colon, 2.27 µM; in the experiment on MALME-3M melanoma it was 1.49 µM; in the experiment on NCI-H460 lung, 1.9 µM. Moreover, the figures for the GI50 in the experiment with OVCAR-3 ovarian and with SNB-75 CNS were 0.304 µM and 2.51 µM, respectively. The TGI amounted to 3.22 µM in the experiment with ACHN renal; 4.54 µM in the experiment with HS 578T breast; 3.63 µM in the experiment on IGROV1 ovarian; 5.99 µM in the experiment with KM12 colon; 3.07 µM in the experiment with MALME-3M melanoma; 3.92 µM in the experiment with NCI-H460 lung. Moreover, the TGI stood at 2 µM in the experiment on OVCAR-3 ovarian and 5.09 µM in the experiment with SNB-75 CNS.

For the origin of these results see PubChem BioAssay (NCI).
